Test results reported in paper PMC4783402 (Frontiers in Microbiology, 2016).

Columns and labels:
in vitro = conditions: human
L. pneumophila biofilm [1] = assay type: cell-based, Legionella pneumophila 155; conditions: 0.1 mM polyamino-phenolic ligand, 3-day-old biofilm treated 3 days, tap water, 37°C
[2] = system: L. pneumophila/E. coli biofilm; assay type: cell-based, Legionella pneumophila 155 / Escherichia coli; conditions: 0.1 mM polyamino-phenolic ligand, 3-day-old biofilm treated 3 days
L. pneumophila biofilm [3] = assay type: cell-based, Legionella pneumophila 155; conditions: 0.1 mM polyamino-phenolic ligand added at inoculum, 3-day contact time
[4] = system: L. pneumophila/A. hydrophila biofilm; assay type: cell-based, Legionella pneumophila 155 / Aeromonas hydrophila; conditions: 0.1 mM polyamino-phenolic ligand added at inoculum, 3-day contact time
[5] = system: L. pneumophila/E. coli biofilm; assay type: cell-based, Legionella pneumophila 155 / Escherichia coli; conditions: 0.1 mM polyamino-phenolic ligand added at inoculum, 3-day contact time
planktonic A. hydrophila = assay type: cell-based, Aeromonas hydrophila
planktonic E. coli = assay type: cell-based, Escherichia coli
[6] = system: planktonic L. pneumophila; assay type: cell-based, Legionella pneumophila; conditions: 0.1 mM polyamino-phenolic ligand, 24 h, PBS, 37°C
planktonic P. aeruginosa = assay type: cell-based, Pseudomonas aeruginosa
planktonic K. pneumoniae = assay type: cell-based, Klebsiella pneumoniae
[7] = system: L. pneumophila/A. hydrophila biofilm; assay type: cell-based, Legionella pneumophila 155 / Aeromonas hydrophila; conditions: 0.1 mM polyamino-phenolic ligand, 3-day-old biofilm treated 3 days
[8] = system: L. pneumophila/K. pneumonia biofilm; assay type: cell-based, Legionella pneumophila 155 / Klebsiella pneumoniae; conditions: 0.1 mM polyamino-phenolic ligand, 3-day-old biofilm treated 3 days
[9] = system: L. pneumophila/P. aeruginosa biofilm; assay type: cell-based, Legionella pneumophila 155 / Pseudomonas aeruginosa; conditions: 0.1 mM polyamino-phenolic ligand added at inoculum, 3-day contact time
[10] = system: L. pneumophila/K. pneumoniae biofilm; assay type: cell-based, Legionella pneumophila 155 / Klebsiella pneumoniae; conditions: 0.1 mM polyamino-phenolic ligand added at inoculum, 3-day contact time
[11] = system: five-species biofilm (L. pneumophila/P. aeruginosa/A. hydrophila/E. coli/K. pneumoniae); assay type: cell-based; conditions: 0.1 mM polyamino-phenolic ligand added at inoculum, 3-day contact time

Compound | viability (in vitro) | biofilm reduction (degradation) (L. pneumophila biofilm [1]) | effect on number of viable planktonic cells (planktonic A. hydrophila) | effect on number of viable planktonic cells (planktonic E. coli) | effect on number of viable planktonic cells [6] | effect on number of viable planktonic cells (planktonic P. aeruginosa) | effect on number of viable planktonic cells (planktonic K. pneumoniae) | further results
NCCN(CCN)Cc1cccc(-c2cccc(CN(CCN)CCN)c2O)c1O [Bfden, 3,3′-bis(N,N-bis(2-aminoethyl)aminomethyl)-2,2′-dihydroxybiphenyl] | 97% |  |  |  |  |  |  | 
NCCNCCNCc1cc(-c2ccc(O)c(CNCCNCCN)c2)ccc1O [Bisom, 3,3′-bis(N-(N-(2-aminoethyl)-2-aminoethyl)aminomethyl)-4,4′-dihydroxybiphenyl] | 72% |  |  |  |  |  |  | 
NCCN(CCN)Cc1cc(-c2ccc(O)c(CN(CCN)CCN)c2)ccc1O [Dimo, 3,3′-bis(N,N-bis(2-aminoethyl)aminomethyl)-4,4′-dihydroxybiphenyl] | 58% | 27% |  |  |  |  |  | 
Oc1c2cccc1CNCCN(CCNCCCNCCNCCCNCCN1CCNCc3cccc(c3O)CNCC1)CCNC2 [Double Macrophen, 1,16-bis(3,6,9-triaza-15-hydroxybicyclo(9.3.1)pentadeca-11,13,1^15-trien-6-yl)-3,7,10,14-tetraazahexadecane] | 95% | 32% | did not reduce the number of viable cells | did not reduce the number of viable cells | did not reduce the number of viable cells | did not reduce the number of viable cells | did not reduce the number of viable cells | biofilm reduction (degradation) [2]: 39%; biofilm formation inhibition (L. pneumophila biofilm [3]): 48%; biofilm formation inhibition [4]: 34%; biofilm formation inhibition [5]: 42%
NCCN1CCNCc2cccc(c2O)CNCC1 [Macrophen, 2-(3,6,9-triaza-15-hydroxybicyclo(9.3.1)pentadeca-11,13,1^15-trien-6-yl)ethylamine] |  | 27% | did not reduce the number of viable cells | did not reduce the number of viable cells | did not reduce the number of viable cells | did not reduce the number of viable cells | did not reduce the number of viable cells | biofilm reduction (degradation) [7]: 33%; biofilm reduction (degradation) [8]: 33%; biofilm formation inhibition [9]: 26%; biofilm formation inhibition [10]: 24%; biofilm formation inhibition [11]: 27%
